Results: patent US11040021B2, “Treatment of diseases associated with hepatic stellate cell activation using ammonia-lowering therapies” (UCL Business PLC, priority 2014, dated 2021)

How the values were obtained:
SOD2 = SOD2 mRNA expression in hHSC; assay type: cell-based, human
[1] = system: primary human hepatic stellate cells (hHSCs); assay: hHSC recovery with glutamine and GS inhibition (MSO) under ammonia; assay type: cell-based
Protocol: (§1) Primary human hepatic stellate cells (hHSCs) were cultured. Effects of an NH4Cl challenge (0.1-10 mM over 24-72 hrs) on hHSC proliferation (BrdU), metabolic activity (MTS assay), viability (Neutral-Red), ultrastructural changes (TE-M) and gene/protein expression (q-PCR/Western blot) were studied. To test recovery, ammonia treated cells were replenished with glutamine and in separate experiments, pre-treated with L-methionine-sulfoximine (MSO-GS inhibitor) to determine the importance of glutamine synthetase (GS).

[2] = system: primary human hepatic stellate cells (hHSCs)
Protocol: as §1
(§2) In this example, primary human HSCs (hHSCs) were isolated and cultured. Proliferation (BrdU), metabolic activity (MTS), morphology (TEM, light- and immunofluorescence microscopy), HSC activation markers, ability to contract, and changes in oxidative status (ROS) were evaluated to identify effects of ammonia challenge (50 μM, 100 μM, 300 μM) over 24-72 hours.
(§3) Primary hHSCs were isolated from wedge sections of liver tissue, obtained from patients undergoing surgery in the Royal Free Hospital after giving informed consent (EC01.14-RF). Cells were isolated according to Mederacke et al. (Nature Protocols 2015, 10:305-315) with modifications for human liver as described in Rombouts K, Carloni V. Determination and characterization of tetraspanin-associated phosphoinositide-4 kinases in primary and neoplastic liver cells. In: Waugh MG, editor. Lipid Signaling Protocols, 2 ed. New York: Springer Science+Business Media; 2015. p. 203-212). Briefly, 10 g of total human liver tissue was digested with 0.01% Collagenase, 0.05% Pronase and 0.001% DNase I without performing perfusion. The homogenate was filtered through a 100 μm cell strainer and the flow-through was centrifuged at 50×g for 2 minutes at 4° C. After washing the supernatant, gradient centrifugation was performed at 1400×g for 17 minutes at 4° C. using an 11.5% Optiprep gradient. Finally, the interface was collected and washed. Purity of hHSCS was established by detection of CD140b (PDGFRbeta), CD29 (Integrin beta 1) and Cytoglobin (CYGB).
The obtained HSCs were cultured in RPMI supplemented with 20% fetal bovine serum (FBS), GLUTAMAX, nonessential amino acids 1×, 1.0 mM sodium pyruvate, 1× antibiotic-antimycotic (all Life Technologies), referred to as complete HSC medium hereinafter. Experiments described in this study were performed on hHSCs of at least three independent cell preparations between passage 3 and 8.
Cells were seeded (density 26×10^3/cm^2) under basic serum-rich conditions (CM complete medium) for 24 hours, followed by serum deprivation for another 24 hours (SFM). Exogenous glutamine was removed from the culture medium to avoid uncontrolled generation of ammonia. Specific treatment with NH4Cl treatments were replaced daily for the duration of the experiment.

[3] = system: primary human hepatic stellate cells (hHSCs); conditions: up to 72 hours
Protocol: The formation of reactive oxygen species (ROS) was measured using Image-IT™ LIVE Green Reactive Oxygen Species Detection Kit. In FIG. 3B, mean fluorescence intensity (MFI) of ROS signal was normalized according to the number of cells (Hoechst 33342), and expressed as percentage of control.
as §2

[4] = system: primary human hepatic stellate cells (hHSCs); conditions: after 3 hours, sustained after 24 hours, vs control
Protocol: as §2

[5] = system: α-SMA, vimentin, PDGF-Rβ, Myosin IIa and IIb, p-38 MAPK, Collagen type I
Protocol: as §1, §2

[6] = system: MMP2, TIMP1, Interleukin-1β, Interleukin 6, Interleukin 8
Protocol: as §1, §2

[7] = system: primary human hepatic stellate cells (hHSCs); remark: listed apart in the source
Description: as §3
The obtained HSCs were cultured in RPMI supplemented with 20% fetal bovine serum (FBS), GLUTAMAX, nonessential amino acids 1×, 1.0 mM sodium pyruvate, 1× antibiotic-antimycotic (all Life Technologies), referred to as complete HSC medium hereinafter. […]

[8] = Example 1, NH4Cl challenge 0.1-10 mM over 24-72 hrs
[9] = different concentrations of ammonia (50, 100, 300 μM), 72 hours
[10] = in comparison to MSO treatment only
[11] = increasing concentrations of ammonia

## CC(=O)N[C@@H](CS)C(=O)O [NAC, N-acetyl cysteine]
SOD2; 3 hours of ammonia treatment
  Ammonia-induced SOD2 mRNA expression after NAC pre-treatment: no impact
SOD2; 24 hours of ammonia treatment
  Ammonia-induced SOD2 mRNA expression after NAC pre-treatment: almost completely abolished

## NC(=O)CC[C@H](N)C(=O)O [L-glutamine]
[1]; Example 1
  Ammonia-induced ER enlargement on replenishing the culture with L-glutamine: reversible

## CS(=N)(=O)CC[C@H](N)C(=O)O (stereo partly drawn) [MSO, L-Methionine sulfoximine]
[1]; Example 1, MSO pre-treatment
  Effect of MSO together with hyperammonemia on hHSC: induced cell detachment and prevention of recovery

## N [ammonia, NH4Cl]
[2]; 72 hours
  Filamentous actin in the cytoskeleton (TRITC-Phalloidin staining): dose-dependent disruption of filamentous actin
[2]; Example 1
  Intracellular ER (ultrastructure): dose-dependent intracellular ER enlargement
[2]; [8]
  Metabolic activity: time dependent decreases
  Proliferation: time dependent decreases
[2]; Example 1, even at 50-100 umol/L
  Cell phenotype: cell swelling and a myo-fibroblast-like phenotype
[2]; [9]
  Cell proliferation (BrdU assay): significant inhibition
  Metabolic activity (MTS assay): significant inhibition
[2]; dose-dependent, FIG. 2A
  Ultrastructural change (TEM): dramatic dose-dependent change in the cytosol and marked presence of translucent vacuoles
[2]; [10]
  Metabolic activity after MSO pretreatment followed by ammonia: did not further inhibit
  Proliferation after MSO pretreatment followed by ammonia: did not further inhibit
[3]
  ROS production: produced significant reactive oxygen species
[4]
  Contraction of hHSCs cultured on collagen gels: significant ability to contract
[5]
  P-38 MAPK expression: dose-dependent response
  PDGFR-β protein: significant up-regulation
[5]; 300 μM ammonia
  Vimentin synthesis: increased
[5]; FIG. 4A
  α-SMA protein expression: significantly increase
[5]; [11]
  Myosin IIa protein: significantly modulated
  Myosin IIb protein: significantly modulated
[5]; not statistically significant
  Collagen type I protein: tendency to increase
[6]
  Interleukin 8 mRNA expression: did not modify
[6]; FIG. 4B
  MMP2 mRNA expression: strong and significant up-regulation
  TIMP1 mRNA expression: down-regulated
[6]; ammonia 300 μM for 72 hours
  Interleukin-1β mRNA expression: significantly induced
[6]; ammonia at 50 μM and 100 μM
  Interleukin 6 mRNA expression level: significantly up-regulated
[7]
  Cell death (Cell Death Detection ELISA): did not cause cell death
SOD2; ammonia, after 3 hours, sustained at 24 hours
  SOD2 mRNA expression: strong increase
